Laboratory results from patent US10472677B2, “Translational dysfunction based therapeutics” (Translational Therapeutics, Inc., priority 2005, dated 2019).

Key:
[1] = system: polysomal loading of eIF4E-sensitive mRNAs; assay: polysomal loading of mRNAs, ribosome purification and quantitative RT-PCR; type: cell-based, mouse
Method: Cell pellets (500 mg) were homogenized in 1 ml of ice cold lysis buffer (20 mM Hepes/10 mM magnesium acetate/100 mM potassium acetate, pH 7.5) supplemented with protease inhibitors (EDTA-free Complete, Roche) and 400 units/ml of SUPERasine (Ambion), and incubated for 30 min on ice with occasional vortexing. Lysates were sedimented at 3,000×g for 10 min at 4° C. to pellet nuclei and cell debris. Supernatants were sedimented at 12,000×g for 20 min at 4° C. to pellet mitochondria. Cleared supernatants were then sedimented at 50,000 rpm (SW 50.1 rotor, Beckman) for 50 min at 4° C. to pellet ribosomes. Ribosomal pellets were resuspended in 200 μl of ice-cold lysis buffer and layered on top of 10-40% sucrose gradient buffered with the lysis buffer, and centrifuged at 50,000 rpm for 80 min at 4° C. RNA content of fractions was ascertained by using the ratio of absorbance at 260:280 nm. […] RNA from each fraction was quantified by spectrophotometry and 40 ng was converted into cDNA by using the Sensiscript reverse transcription kit (Qiagen, Valencia, Calif.). Quantitative real-time PCR was carried out in triplicate by using the QuantiTect SYBR green real-time PCR Kit (Qiagen) in an Opticon thermal cycler (MJ Research, Waltham, Mass.). […] Obtained real-time PCR profiles were analyzed by using Opticon software (MJ Research).

[2] = system: cellular guanosine pools; settings: read-out: EC50 depletion of cellular guanosine pools; cited from earlier work
[3] = system: Akt; assay: Akt phosphorylation; type: cell-based; settings: FIGS. 35 and 36
[4] = target: T1, eIF4E W56A (Mus musculus, UniProt P63073, W56A); assay: tryptophan fluorescence quenching titration, cap-binding site mutant; settings: relative to wild-type eIF4E
T1 construct: made in house
Method: For fluorescence titrations, mouse eIF4E, which differs from human eIF4E by four nonconserved amino acids, was produced as described. For NMR spectroscopy, mouse eIF4E was expressed as a fusion with the B1 domain of protein G (G4E, kind gift of Gerhard Wagner, Harvard University, Cambridge, Mass.), in BL21 (DE-3) cells by induction with 0.8 mM isopropyl-β-D-thiogalactopyranoside at 18° C. for 20 h in M9 minimal media containing 1 g/l ^15NH4Cl as the sole nitrogen source (Cambridge Isotopes). […] Eluate was dialyzed extensively against 0.1 M NaCl/50 mM Na2PO4 (pH 6.5)/5 mM DTT at 4° C. to produce apo-G4E, as verified by using NMR spectroscopy and fluorescence titrations. […]
(§1) Fluorescence measurements were performed by using a home-built fluorimeter, as described. All titrations were performed in 0.3 M NaCl/10 mM Na2PO4 (pH 7.5)/1 μM zinc in 0.3×0.3 cm^2 fluorescence cuvette (Hellma), by using eIF4E concentration of 2 μM. […] Corrected relative fluorescence intensities were normalized, and fluorescence quenching curves were fit to a heuristic single-site-binding expression: I/I0=Kd^n/(x^n+Kd^n) where x is ligand concentration, Kd is the apparent dissociation constant, and n is the Hill coefficient.

[5] = target: T2, eIF4E wild-type (Mus musculus, UniProt P63073); assay: tryptophan fluorescence quenching titration of nucleoside/nucleotide binding; settings: fluorescence spectroscopy, wild-type eIF4E; read-out: apparent dissociation constant (Kd) for eIF4E
T2 construct: made in house
Method: For fluorescence titrations, mouse eIF4E, which differs from human eIF4E by four nonconserved amino acids, was produced as described. For NMR spectroscopy, mouse eIF4E was expressed as a fusion with the B1 domain of protein G (G4E, kind gift of Gerhard Wagner, Harvard University, Cambridge, Mass.), in BL21 (DE-3) cells by induction with 0.8 mM isopropyl-β-D-thiogalactopyranoside at 18° C. for 20 h in M9 minimal media containing 1 g/l ^15NH4Cl as the sole nitrogen source (Cambridge Isotopes). Cells were lysed at 4° C. by sonication in 0.1 M NaCl/50 mM Tris.HCl (pH 7.5/0.5 mM EDTA/0.5% (vol/vol) Nonidet P-40/10 mM 2-mercaptoethanol/1 mM PMSF. Lysates were cleared by centrifugation at 30,000×g, adsorbed onto m^7G diphosphate-conjugated agarose (Amersham Pharmacia), and extensively washed with 0.1 M NaCl/20 mM Tris.HCl (pH 7.5)/0.5 mM EDTA (Buffer A) at 4° C. Subsequently, beads were washed with 0.1 mM GTP in Buffer A, and G4E was eluted with 5 mM m^7G in Buffer A. Eluate was diluted with 20 mM Na2PO4 (pH 7.5) to reduce NaCl concentration to 50 mM, applied to Sepharose Q anion exchange column (Amersham Pharmacia), and eluted with a linear gradient of NaCl in 20 mM Na2PO4 (pH 7.5) at 4° C. Eluate was dialyzed extensively against 0.1 M NaCl/50 mM Na2PO4 (pH 6.5)/5 mM DTT at 4° C. to produce apo-G4E, as verified by using NMR spectroscopy and fluorescence titrations. Purity and identity of G4E were verified by using SDS/PAGE and electrospray ionization MS. Proteins were concentrated by using Amicon concentrators (Millipore).
as §1

[6] = system: FaDu cells; assay: Western blot of FaDu cells treated in culture; type: cell-based, human; settings: 48 hours
Method: FaDu cells were grown in culture as described previously and treated with Ribavirin for 48 hours prior to preparation of protein extracts and western blot analysis.

[7] = system: AML-M5 progenitor cells; assay: clonogenic assay, primary CD34+ progenitors; type: cell-based; settings: Homo sapiens, 336 h; 14 days; read-out: apparent IC50 colony formation
From the text: Acute myelogenous leukemia (AML) M1, M5, and normal bone marrow specimens were isolated from patients and processed as described. Primary AML cells were obtained from peripheral blood of patients at the Markey Cancer Center, University of Kentucky Medical Center (Lexington, Ky.). Normal bone marrow was obtained as waste material after pathological analysis, surgical marrow harvest, or from the National Disease Research Interchange (Philadelphia). All tissues were obtained with the approval of the Institutional Review Board and appropriate informed consent. Frozen CD34^+ progenitor cells were thawed in Iscove's modified Dulbecco's (IMD) medium supplemented with 10% (vol/vol) FBS. […] Colonies with >20 cells were counted manually and experiments were repeated four times.

[8] = target: T3, eIF4E (G4E) (UniProt P06654+P63073); assay: electrospray mass spectrometry of purified G4E with Ribavirin and GTP; type: binding, mouse; settings: mixture of Ribavirin and GTP, fourfold excess
T3 construct: made in house; host or cells: E. coli BL21 (DE-3); construct a gift of Gerhard Wagner
Method: FIG. 10. […] Mass spectra were recorded using the Agilent Technologies 1100 LC/MSD integrated liquid chromatograph single quadrupole electrospray mass spectrometer (ES-MS) operating in positive ion mode. […]; The solution was electrosprayed directly at […] using nebulizer pressure of 20 psi, drying nitrogen gas at 200° C. and 10 L/min, and capillary voltage of 4.5 kV. (a) ES-MS spectrum plotting ion abundance in 20 uL of the above mixture as a function of the mass/charge ratio is shown. […]. Thus, obtaining affinities from mass spectrometry data is confounded by these differences in ionization.

T1 sequence (P63073 whole entry W56A): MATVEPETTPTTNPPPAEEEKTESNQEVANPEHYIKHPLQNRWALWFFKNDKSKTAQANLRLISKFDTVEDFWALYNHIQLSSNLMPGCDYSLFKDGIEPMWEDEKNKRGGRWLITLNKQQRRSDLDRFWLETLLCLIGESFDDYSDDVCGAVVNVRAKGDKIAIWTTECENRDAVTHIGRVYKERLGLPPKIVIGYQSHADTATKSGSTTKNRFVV
T3 sequence (P06654+P63073 fused): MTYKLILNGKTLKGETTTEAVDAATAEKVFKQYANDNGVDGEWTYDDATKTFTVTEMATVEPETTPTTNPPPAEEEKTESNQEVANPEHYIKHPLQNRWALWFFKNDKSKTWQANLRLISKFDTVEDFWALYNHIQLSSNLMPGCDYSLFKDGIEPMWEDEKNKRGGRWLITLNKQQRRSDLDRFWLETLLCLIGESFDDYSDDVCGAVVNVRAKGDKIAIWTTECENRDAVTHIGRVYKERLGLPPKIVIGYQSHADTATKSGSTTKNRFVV
T2 sequence (P63073 whole entry): as the sequence (P63073 whole entry W56A) above, with A56W counted along it

## NC(=O)c1ncn([C@@H]2O[C@H](CO)[C@@H](O)[C@H]2O)n1 [Ribavirin, 1-β-D-ribofuranosyl-1,2,4-triazole-3-carboxamide]
[1]
  decrease of polysomal loading of VEGF and ODC mRNAs: > 1,000 fold
[1]; 1 μM
  polysomal loading of cyclin D1 mRNA: no significant effect
[2]
  EC50: ~100 µM
[3]
  effect on Akt phosphorylation: inhibits
[4]
  reduction of Ribavirin affinity by W56A mutation: 14 fold
[5]
  Kd: 8.4 µM
[6]
  Actin and eIF4E protein levels: remain unchanged
  protein level of NBS1, Cyclin D1 and ODC: decreased
[7]
  IC50: ~1 µM
[8]
  binding to eIF4E observed by mass shift: specific binding
